# Measured values reported in US20220220128A1, “HETEROCYCLIC COMPOUNDS AS KINASE INHIBITORS, COMPOSITIONS COMPRISING THE HETEROCYCLIC COMPOUND, AND METHODS OF USE THEREOF” (JS Innopharm (Shanghai) Ltd, priority 2019, published 2022).
# How the values were obtained:
# TT cells = assay: TT Cell Proliferation Assay (WST-8, 8 days); format: cell-based; settings: Homo sapiens, TT, 192 h, growth inhibition in TT cells, read-out: TT Cellular Activity
# Procedure: Compounds disclosed herein were tested for the inhibition of RET by a cancer cell proliferation assay commonly known as MTT assay. In this assay, a complete media was prepared by adding 10% fetal bovine serum to RPMI-1640 medium (Life technology). TT cells were added to each of 88 wells of a 96 well plate at a seeding density of 6,000 cells/well/90 μL. The cells were allowed to attach to the plate by incubating at 37° C. for 24 hours. The compound was dissolved in DMSO (SIGMA). A solution of test compound was prepared in complete media by serial dilution to obtain the following concentrations: 50 μM, 15 μM, 5 μM, 1.5 μM, 0.5 μM, 0.15 μM, 0.05 μM, 0.015 μM and 0.005 μM. The test compound solution (10 μL) was added to each of 80 cell-containing wells. The final concentrations of the compound were following: 5 μM, 1.5 μM, 0.5 μM, 0.15 μM, 0.05 μM, 0.015 μM, 0.005 μM, 0.0015 μM and 0.0005 μM. The final concentration of DMSO is 0.5%. To the 8 remaining cell-containing wells, only complete media (containing 0.5% DMSO) was added to form a control group in order to measure maximal proliferation. To the remaining 8 empty wells, complete media was added to for a vehicle control group in order to measure background. The plates were incubated at 37° C. for 8 days. 10 μL WST-8 solution (DOJINDO, Cell Counting KIT-8) was added to each well. The plates were further incubated at 37° C. for 5 hours, and then read for the absorbance using a microplate reader at 450 nm. The IC50 was calculated using GraphPad Prism.
# human RET kinase = target: T1, human RET kinase (Homo sapiens, UniProt P07949); assay: RET Kinase Assay (LanthaScreen TR-FRET enzymatic assay); format: biochemical; settings: 7 nM RET, 23 μM ATP
# T1 construct: purchased Carna 08-159
# T1 sequence (P07949 29-1114): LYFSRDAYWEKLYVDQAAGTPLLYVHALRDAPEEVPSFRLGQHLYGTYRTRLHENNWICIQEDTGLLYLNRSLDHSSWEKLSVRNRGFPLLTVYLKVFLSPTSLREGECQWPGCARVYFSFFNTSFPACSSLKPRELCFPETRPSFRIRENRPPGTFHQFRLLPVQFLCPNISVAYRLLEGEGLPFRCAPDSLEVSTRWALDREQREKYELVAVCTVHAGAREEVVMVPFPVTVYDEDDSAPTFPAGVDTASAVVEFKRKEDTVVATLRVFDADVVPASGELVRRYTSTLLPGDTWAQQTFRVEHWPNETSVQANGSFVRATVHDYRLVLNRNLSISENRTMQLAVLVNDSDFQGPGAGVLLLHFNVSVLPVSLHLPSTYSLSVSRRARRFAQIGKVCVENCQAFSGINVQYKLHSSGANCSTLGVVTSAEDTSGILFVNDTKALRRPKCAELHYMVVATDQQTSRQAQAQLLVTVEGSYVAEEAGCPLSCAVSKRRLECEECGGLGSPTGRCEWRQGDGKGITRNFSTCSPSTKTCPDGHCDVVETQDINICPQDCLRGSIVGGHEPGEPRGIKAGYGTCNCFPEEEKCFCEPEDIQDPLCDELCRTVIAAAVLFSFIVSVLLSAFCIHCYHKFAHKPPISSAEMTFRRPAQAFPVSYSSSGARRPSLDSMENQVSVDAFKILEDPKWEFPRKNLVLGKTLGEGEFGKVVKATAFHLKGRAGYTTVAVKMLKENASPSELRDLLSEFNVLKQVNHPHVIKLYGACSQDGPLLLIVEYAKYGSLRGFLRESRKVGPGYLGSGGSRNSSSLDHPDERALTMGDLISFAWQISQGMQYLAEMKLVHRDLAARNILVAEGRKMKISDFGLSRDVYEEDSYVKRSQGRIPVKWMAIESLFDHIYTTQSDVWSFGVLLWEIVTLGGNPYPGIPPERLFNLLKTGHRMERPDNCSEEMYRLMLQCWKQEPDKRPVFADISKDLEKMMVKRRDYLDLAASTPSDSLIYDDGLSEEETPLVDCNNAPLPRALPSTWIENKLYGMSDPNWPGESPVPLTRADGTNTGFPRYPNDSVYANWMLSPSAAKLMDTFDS
# Procedure: Compounds were tested in a LanthaScreen™ time-resolved fluorescence energy transfer (TR-FRET) enzymatic assay from Invitrogen. The assay used human RET kinase (Carna 08-159). Test compounds were prepared and diluted in DMSO in 3-fold serial dilutions to 50× of the final testing concentrations. The compounds were then further diluted to 5× by the kinase reaction buffer (50 mM HEPES pH 7.5, 0.0015% Brij-35). The enzymatic reaction for compound testing was performed in a white 384-well polypropylene plate (Corning 3573) with a total reaction volume of 25 μl containing 7 nM RET, 3 μM peptide substrate FAM-P2 (GL Biochem 112394), and 23 μM ATP (Sigma A7699-1G). The assay started with loading RET diluted in kinase reaction buffer to wells, followed by addition of equal volume of 5× compounds for 15-min incubation at the room temperature for pre-treatment. The enzymatic reaction was initiated by addition of mixture of the substrate and ATP prepared in kinase reaction buffer. After incubation at 28° C. for one hour, 25 μl of stopper buffer (a mixture of 100 mM HEPES pH 7.5 buffer, 0.015% Brij-35, 50 mM EDTA and 0.2% of coating reagent 3 (Cliper Lifesciences)) and produce TR-FRET signals. After 30 minutes of incubation at room temperature, the plate was read in a Caliper with the following settings: Excitation 340 nm (30)/Emission1 495 nm (10)/Emission2 520 nm (25). The TR-FRET values were dimensionless numbers that were calculated as the ratio of the acceptor ([…]) signal to the donor (Terbium) signal. Percent of control was calculated as the percentage of compound-treated vs 1% DMSO vehicle-treated. The dose-response curves were generated and the IC50s were calculated by nonlinear sigmoid curve fitting using XLFit.
# human KDR kinase = target: T2, human KDR kinase (Homo sapiens, UniProt P35968); assay: KDR Kinase Assay (LanthaScreen TR-FRET enzymatic assay); format: biochemical; settings: 1.2 nM KDR, 92 μM ATP
# T2 construct: purchased Carna 08-191
# T2 sequence (P35968 20-1356): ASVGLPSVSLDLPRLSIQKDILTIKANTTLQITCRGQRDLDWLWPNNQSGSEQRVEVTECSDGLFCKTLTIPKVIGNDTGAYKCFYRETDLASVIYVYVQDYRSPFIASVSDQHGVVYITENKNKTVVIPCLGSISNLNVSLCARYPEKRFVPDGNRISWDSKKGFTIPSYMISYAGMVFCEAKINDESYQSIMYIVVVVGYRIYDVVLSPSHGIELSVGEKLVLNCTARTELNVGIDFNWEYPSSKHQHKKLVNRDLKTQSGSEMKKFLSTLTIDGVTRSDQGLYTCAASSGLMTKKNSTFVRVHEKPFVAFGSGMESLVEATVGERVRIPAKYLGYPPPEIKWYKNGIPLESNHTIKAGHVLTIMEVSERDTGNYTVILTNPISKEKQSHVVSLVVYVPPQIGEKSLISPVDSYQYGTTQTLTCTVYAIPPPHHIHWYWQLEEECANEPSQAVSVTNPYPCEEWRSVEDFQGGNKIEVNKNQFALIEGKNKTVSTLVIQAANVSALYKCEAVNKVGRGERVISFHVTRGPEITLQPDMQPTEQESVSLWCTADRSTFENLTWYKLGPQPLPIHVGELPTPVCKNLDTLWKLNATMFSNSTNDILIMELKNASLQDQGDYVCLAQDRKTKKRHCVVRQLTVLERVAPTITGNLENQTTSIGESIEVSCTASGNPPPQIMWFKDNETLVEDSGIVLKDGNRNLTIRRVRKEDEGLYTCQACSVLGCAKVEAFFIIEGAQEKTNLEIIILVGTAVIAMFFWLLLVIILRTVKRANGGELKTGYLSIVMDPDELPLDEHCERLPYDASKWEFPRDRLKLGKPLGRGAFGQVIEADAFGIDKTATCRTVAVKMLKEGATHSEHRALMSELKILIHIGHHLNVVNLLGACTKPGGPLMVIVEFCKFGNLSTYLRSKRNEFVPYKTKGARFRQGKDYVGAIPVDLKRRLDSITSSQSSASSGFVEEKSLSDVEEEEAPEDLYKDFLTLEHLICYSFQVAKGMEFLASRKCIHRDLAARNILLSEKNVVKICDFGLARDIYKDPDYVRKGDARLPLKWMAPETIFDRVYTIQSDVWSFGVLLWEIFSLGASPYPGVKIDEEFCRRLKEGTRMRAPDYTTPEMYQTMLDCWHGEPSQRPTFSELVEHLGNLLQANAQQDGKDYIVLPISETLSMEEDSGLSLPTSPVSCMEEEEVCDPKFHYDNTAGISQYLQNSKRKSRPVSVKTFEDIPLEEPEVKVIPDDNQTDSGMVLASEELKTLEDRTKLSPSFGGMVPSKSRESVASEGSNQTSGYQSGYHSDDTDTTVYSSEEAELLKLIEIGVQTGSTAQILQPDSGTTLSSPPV
# Method in brief: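 TR-FRET enzymatic format: after 15-min room-temperature compound pretreatment, 1.2 nM human KDR phosphorylated 3 μM FAM-P22 with 92 μM ATP (HEPES pH 7.5, 28° C., one hour). Reactions were quenched with EDTA buffer. IC50 came from nonlinear sigmoid fits of percent-of-vehicle signal ratios.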
IC50 (human RET kinase) [nM],IC50 (human KDR kinase) [nM],SMILES,IC50 (TT cells) [nM]
≤ 10,≤ 10,"Cn1cc(-c2cc(-c3ccc(N4C[C@@H]5[C@@H](CNC(=O)C(O)c6ccccc6)[C@@H]5C4)nc3)c3c(C#N)cnn3c2)cn1 (stereo partly drawn) [Example 76, N-(((1R,5S,6s)-3-(5-(3-cyano-6-(1-methyl-1H-pyrazol-4-yl)pyrazolo[1,5-a]pyridin-4-yl)pyridin-2-yl)-3-azabicyclo[3.1.0]hexan-6-yl)methyl)-2-hydroxy-2-phenylacetamide]",10 to 50
≤ 10,10 to 50,"COc1ccc(CN(C)[C@H]2[C@@H]3CN(c4ccc(-c5cc(-c6cnn(C)c6)cn6ncc(C#N)c56)cn4)C[C@@H]32)cn1 [Example 34, 4-(6-((1R,5S,6s)-6-(((6-methoxypyridin-3-yl)methyl)(methyl)amino)-3-azabicyclo[3.1.0]hexan-3-yl)pyridin-3-yl)-6-(1-methyl-1H-pyrazol-4-yl)pyrazolo[1,5-a]pyridine-3-carbonitrile]",10 to 50
≤ 10,50 to 100,"COc1cc(-c2ccc(N3C[C@@H]4C[C@@](C)(NC(=O)c5ncccc5Cl)C[C@@H]4C3)nc2)c2c(C#N)cnn2c1 [Example 52, 3-chloro-N-((3aR,5s,6aS)-2-(5-(3-cyano-6-methoxypyrazolo[1,5-a]pyridin-4-yl)pyridin-2-yl)-5-methyloctahydro-cyclopenta[c]pyrrol-5-yl)picolinamide]",10 to 50
10 to 50,50 to 100,"COc1ccc(C(=O)N[C@H]2[C@@H]3CN(c4ccc(-c5cc(-c6cnn(C)c6)cn6ncc(C#N)c56)cc4)C[C@@H]32)cn1 [Example 15, N-((1R,5S,6s)-3-(4-(3-cyano-6-(1-methyl-1H-pyrazol-4-yl)pyrazolo[1,5-a]pyridin-4-yl)phenyl)-3-azabicyclo[3.1.0]hexan-6-yl)-6-methoxynicotinamide]",10 to 50
≤ 10,10 to 50,CC(C)C(O)C(=O)N1C[C@@H]2CN(c3ccc(-c4cc(-c5cnn(C)c5)cn5ncc(C#N)c45)cn3)C[C@@H]2C1 (stereo partly drawn) [Example 2],10 to 50
≤ 10,10 to 50,"CC(C)(O)COc1cc(-c2ccc(N3C[C@@H]4[C@H](C3)[C@H]4NS(=O)(=O)c3c(F)cccc3Cl)nc2)c2c(C#N)cnn2c1 [Example 47, 2-chloro-N-((1R,5S,6s)-3-(5-(3-cyano-6-(2-hydroxy-2-methylpropoxy)pyrazolo[1,5-a]pyridin-4-yl)pyridin-2-yl)-3-azabicyclo[3.1.0]hexan-6-yl)-6-fluorobenzene-sulfonamide]",10 to 50
10 to 50,50 to 100,"Cn1ccc(-c2cc(-c3ccc(N4C[C@@H]5C[C@@](C)(NC(=O)c6ncccc6C#N)C[C@@H]5C4)nc3)c3c(C#N)cnn3c2)n1 [Example 198, 3-cyano-N-((3aR,5s,6aS)-2-(5-(3-cyano-6-(1-methyl-1H-pyrazol-3-yl)pyrazolo[1,5-a]pyridin-4-yl)pyridin-2-yl)-5-methyloctahydrocyclopenta[c]pyrrol-5-yl)picolinamide]",10 to 50
≤ 10,> 100,"Cn1cc(-c2cc(-c3ccc(N4C[C@@H]5[C@H](C4)[C@H]5NC(=O)C(N)c4ccccc4)nc3)c3c(C#N)cnn3c2)cn1 (stereo partly drawn) [Example 32, 2-amino-N-((1R,5S,6s)-3-(5-(3-cyano-6-(1-methyl-1H-pyrazol-4-yl)pyrazolo[1,5-a]pyridin-4-yl)pyridin-2-yl)-3-azabicyclo[3.1.0]hexan-6-yl)-2-phenylacetamide]",≤ 10
≤ 10,≤ 10,"Cn1cc(-c2cc(-c3ccc(N4C[C@@H]5[C@H](CNC(=O)c6ncccc6Cl)[C@@H]5C4)nc3)c3c(C#N)cnn3c2)cn1 [Example 78, 3-chloro-N-(((1R,5S,6r)-3-(5-(3-cyano-6-(1-methyl-1H-pyrazol-4-yl)pyrazolo[1,5-a]pyridin-4-yl)pyridin-2-yl)-3-azabicyclo[3.1.0]hexan-6-yl)methyl)picolinamide]",≤ 10
≤ 10,10 to 50,"COc1ccc(CN2C[C@@H]3CN(c4ccc(-c5cc(-c6ccn(C)n6)cn6ncc(C#N)c56)cn4)C[C@@H]3C2)cn1 [Example 13, 4-(6-((3aR,6aS)-5-((6-methoxypyridin-3-yl)methyl)hexahydropyrrolo[3,4-c]pyrrol-2(1H)-yl)pyridin-3-yl)-6-(1-methyl-1H-pyrazol-3-yl)pyrazolo[1,5-a]pyridine-3-carbonitrile]",10 to 50
≤ 10,10 to 50,"Cn1cc(-c2cc(-c3ccc(N4C[C@@H]5[C@@H](CNC(=O)OC(C)(C)C)[C@@H]5C4)nc3)c3c(C#N)cnn3c2)cn1 [Example 71, tert-butyl (((1R,5S,6s)-3-(5-(3-cyano-6-(1-methyl-1H-pyrazol-4-yl)pyrazolo[1,5-a]pyridin-4-yl)pyridin-2-yl)-3-azabicyclo[3.1.0]hexan-6-yl)methyl)carbamate]",≤ 10
≤ 10,> 100,"CC(O)COc1cc(-c2ccc(N3C[C@@H]4[C@@H](CNC(=O)c5ncccc5Cl)[C@@H]4C3)nc2)c2c(C#N)cnn2c1 (stereo partly drawn) [Example 124, 3-chloro-N-(((1R,5S,6s)-3-(5-(3-cyano-6-(2-hydroxypropoxy)pyrazolo[1,5-a]pyridin-4-yl)pyridin-2-yl)-3-azabicyclo[3.1.0]hexan-6-yl)methyl)picolinamide]",10 to 50
≤ 10,10 to 50,"Cn1cc(-c2cc(-c3cnc(N4C[C@@H]5CN(S(=O)(=O)c6c(F)cccc6Cl)C[C@@H]5C4)cn3)c3c(C#N)cnn3c2)cn1 [Example 182, 4-(5-((3aR,6aS)-5-((2-chloro-6-fluorophenyl)sulfonyl)hexahdropyrrolo[3,4-c]pyrrol-2(1H)-yl)pyrazin-2-yl)-6-(1-methyl-1H-pyrazol-4-yl)pyrazolo[1,5-a]pyridine-3-carbonitrile]",≤ 10
≤ 10,> 100,"CC(O)COc1cc(-c2ccc(N3C[C@H]4CN(C(=O)c5ncccc5Cl)C[C@H]4C3)nc2)c2c(C#N)cnn2c1 (stereo partly drawn) [Example 8, 4-(6-((3aR,6aS)-5-(3-chloropicolinoyl)hexahydropyrrolo[3,4-c]pyrrol-2(1H)-yl)pyridin-3-yl)-6-(2-hydroxypropoxy)pyrazolo[1,5-a]pyridine-3-carbonitrile]",10 to 50
> 100,> 100,"CCOc1cc(-c2cnc(N3C[C@@H]4[C@H](C3)[C@@H]4NC(=O)c3ncccc3Cl)cn2)c2c(C#N)cnn2c1 [Example 41, 3-chloro-N-((1R,5S,6r)-3-(5-(3-cyano-6-ethoxypyrazolo[1,5-a]pyridin-4-yl)pyrazin-2-yl)-3-azabicyclo[3.1.0]hexan-6-yl)picolinamide]",> 100
≤ 10,10 to 50,"CC(C)(O)COc1cc(-c2ccc(N3C[C@@H]4C[C@@](C)(NS(=O)(=O)c5c(F)cccc5Cl)C[C@@H]4C3)nc2)c2c(C#N)cnn2c1 [Example 197, 2-chloro-N-((3aR,5s,6aS)-2-(5-(3-cyano-6-(2-hydroxy-2-methylpropoxy)pyrazolo[1,5-a]pyridin-4-yl)pyridin-2-yl)-5-methyloctahydrocyclopenta[c]pyrrol-5-yl)-6-fluorobenzenesulfonamide]",10 to 50
